Here are results for 18 molecules from article PMC8949771, “Gold(I)-Mediated Rapid Cyclization of Propargylated Peptides via Imine Formation” (Journal of the American Chemical Society, 2022).

A short description of data set [1]: Au(I)-mediated imine macrocyclisation (JohnPhosAu(MeCN)SbF6 2 equiv, Et4NBr 16 equiv) then in situ NaBH4 reduction to cyclic amine, HPLC isolation. The following applies: the molecule shown is the open-chain precursor, DMF, 8.0 mM, 37.0 °C, 2 steps.
The nature of data set [2]: Au(I)-mediated imine macrocyclisation: N-terminal amine adds (Markovnikov) to N-propargyl backbone amide alkyne; JohnPhosAu(MeCN)SbF6 2 equiv, Et4NBr 16 equiv; in situ NaBH4 10 equiv reduction 15 min for quantification. The note with it: 24-membered ring, DMF, 8.0 mM, 37.0 °C.

Molecules are shown by their SMILES.

For `C#CCN(CC(N)=O)C(=O)CNC(=O)[C@H](C)NC(=O)[C@H](CCCNC(=N)N)NC(=O)[C@H](Cc1ccc(O)cc1)NC(=O)[C@H](CC(C)C)NC(=O)[C@H](CCCCN)NC(=O)CNC(=O)OCC1c2ccccc2-c2ccccc21` [Fmoc-Gly-Lys-Leu-Tyr-Arg-Ala-Gly-(N-propargyl)Gly-NH2], the ring closure, yield over several steps in data set [1] (25-membered ring, 1.0 h) was 61%.

Turning to `CC(C)C[C@@H]1NC(=O)CNC(=O)[C@H](Cc2ccccc2)NC(C)CN([C@@H](CC(=O)O)C(N)=O)C(=O)CNC(=O)[C@H](C)NC(=O)[C@H](CCCNC(=N)N)NC(=O)[C@H](Cc2ccc(O)cc2)NC1=O` (stereo partly drawn) [H-Phe-Gly-Leu-Tyr-Arg-Ala-Gly-(N-propargyl)Asp-NH2], the ring closure, conversion by HPLC in data set [2] (from C#CCN(C(=O)CNC(=O)[C@H](C)NC(=O)[C@H](CCCNC(=N)N)NC(=O)[C@H](Cc1ccc(O)cc1)NC(=O)[C@H](CC(C)C)NC(=O)CNC(=O)[C@@H](N)Cc1ccccc1)[C@@H](CC(=O)O)C(N)=O, 1.0 h) stood at 56%.

Regarding `C#CCN(CC(N)=O)C(=O)CNC(=O)[C@H](C)NC(=O)[C@H](CCCNC(=N)N)NC(=O)[C@H](Cc1ccc(O)cc1)NC(=O)[C@H](CC(C)C)NC(=O)CNC(=O)[C@@H](N)Cc1ccccc1` [H-Phe-Gly-Leu-Tyr-Arg-Ala-Gly-(N-propargyl)Gly-NH2], in data set [1] (24-membered ring, 0.5 h), the ring closure, yield over several steps worked out at 75%.

For the molecule `CC(C)C[C@@H]1NC(=O)CNC(=O)[C@H](Cc2ccccc2)NC(C)CN(CC(N)=O)C(=O)CNC(=O)[C@H](C)NC(=O)[C@H](CCCNC(=N)N)NC(=O)[C@H](Cc2ccc(O)cc2)NC1=O` (stereo partly drawn) [H-Phe-Gly-Leu-Tyr-Arg-Ala-Gly-(N-propargyl)Gly-NH2], the ring closure, conversion by HPLC in data set [2] (from C#CCN(CC(N)=O)C(=O)CNC(=O)[C@H](C)NC(=O)[C@H](CCCNC(=N)N)NC(=O)[C@H](Cc1ccc(O)cc1)NC(=O)[C@H](CC(C)C)NC(=O)CNC(=O)[C@@H](N)Cc1ccccc1, 0.5 h) worked out at 85%.

On to `C#CCN(C(=O)CNC(=O)[C@H](C)NC(=O)[C@H](CCCNC(=N)N)NC(=O)[C@H](Cc1ccc(O)cc1)NC(=O)[C@H](CC(C)C)NC(=O)CNC(=O)[C@@H](N)Cc1ccccc1)[C@H](C(N)=O)[C@@H](C)CC` [H-Phe-Gly-Leu-Tyr-Arg-Ala-Gly-(N-propargyl)Ile-NH2], for which the ring closure, yield over several steps in data set [1] (24-membered ring, 1.0 h) was determined as 60%.

For the molecule `CC[C@H](C)[C@@H](C(N)=O)N1CC(C)N[C@@H](Cc2ccccc2)C(=O)NCC(=O)N[C@@H](CC(C)C)C(=O)N[C@@H](Cc2ccc(O)cc2)C(=O)N[C@@H](CCCNC(=N)N)C(=O)N[C@@H](C)C(=O)NCC1=O` (stereo partly drawn) [H-Phe-Gly-Leu-Tyr-Arg-Ala-Gly-(N-propargyl)Ile-NH2], in data set [2] (from C#CCN(C(=O)CNC(=O)[C@H](C)NC(=O)[C@H](CCCNC(=N)N)NC(=O)[C@H](Cc1ccc(O)cc1)NC(=O)[C@H](CC(C)C)NC(=O)CNC(=O)[C@@H](N)Cc1ccccc1)[C@H](C(N)=O)[C@@H](C)CC, 1.0 h), the ring closure, conversion by HPLC came to 85%.

Turning to `CC(C)C[C@@H]1NC(=O)CNC(=O)[C@H](Cc2ccccc2)NC(C)CN([C@@H](Cc2ccccc2)C(N)=O)C(=O)CNC(=O)[C@H](C)NC(=O)[C@H](CCCNC(=N)N)NC(=O)[C@H](Cc2ccc(O)cc2)NC1=O` (stereo partly drawn) [H-Phe-Gly-Leu-Tyr-Arg-Ala-Gly-(N-propargyl)Phe-NH2], the ring closure, conversion by HPLC in data set [2] (from C#CCN(C(=O)CNC(=O)[C@H](C)NC(=O)[C@H](CCCNC(=N)N)NC(=O)[C@H](Cc1ccc(O)cc1)NC(=O)[C@H](CC(C)C)NC(=O)CNC(=O)[C@@H](N)Cc1ccccc1)[C@@H](Cc1ccccc1)C(N)=O, 1.0 h) was determined as 88%.

On to `C#CCN(CC(N)=O)C(=O)[C@@H](NC(=O)[C@H](C)NC(=O)[C@H](CCCNC(=N)N)NC(=O)[C@H](Cc1ccc(O)cc1)NC(=O)[C@H](CC(C)C)NC(=O)CNC(=O)[C@@H](N)Cc1ccccc1)[C@@H](C)CC` [H-Phe-Gly-Leu-Tyr-Arg-Ala-Ile-(N-propargyl)Gly-NH2], for which the ring closure, yield over several steps in data set [1] (24-membered ring, 1.0 h) worked out at 66%.

With `CC[C@H](C)[C@@H]1NC(=O)[C@H](C)NC(=O)[C@H](CCCNC(=N)N)NC(=O)[C@H](Cc2ccc(O)cc2)NC(=O)[C@H](CC(C)C)NC(=O)CNC(=O)[C@H](Cc2ccccc2)NC(C)CN(CC(N)=O)C1=O` (stereo partly drawn) [H-Phe-Gly-Leu-Tyr-Arg-Ala-Ile-(N-propargyl)Gly-NH2], the ring closure, conversion by HPLC in data set [2] (from C#CCN(CC(N)=O)C(=O)[C@@H](NC(=O)[C@H](C)NC(=O)[C@H](CCCNC(=N)N)NC(=O)[C@H](Cc1ccc(O)cc1)NC(=O)[C@H](CC(C)C)NC(=O)CNC(=O)[C@@H](N)Cc1ccccc1)[C@@H](C)CC, 1.0 h) is 89%.

As to `CC(C)C[C@@H]1NC(=O)CNC(=O)[C@H](Cc2ccccc2)NC(C)CN(CC(N)=O)C(=O)[C@H](CO)NC(=O)[C@H](C)NC(=O)[C@H](CCCNC(=N)N)NC(=O)[C@H](Cc2ccc(O)cc2)NC1=O` (stereo partly drawn) [H-Phe-Gly-Leu-Tyr-Arg-Ala-Ser-(N-propargyl)Gly-NH2], in data set [2] (from C#CCN(CC(N)=O)C(=O)[C@H](CO)NC(=O)[C@H](C)NC(=O)[C@H](CCCNC(=N)N)NC(=O)[C@H](Cc1ccc(O)cc1)NC(=O)[C@H](CC(C)C)NC(=O)CNC(=O)[C@@H](N)Cc1ccccc1, 1.0 h), the ring closure, conversion by HPLC was determined as 64%.

Regarding `CC(C)C[C@@H]1NC(=O)CNC(=O)[C@H](Cc2ccccc2)NC(C)CN(CC(N)=O)C(=O)CNC(=O)[C@H](C)NC(=O)[C@H](CC(=O)O)NC(=O)[C@H](Cc2ccc(O)cc2)NC1=O` (stereo partly drawn) [H-Phe-Gly-Leu-Tyr-Asp-Ala-Gly-(N-propargyl)Gly-NH2], the ring closure, conversion by HPLC in data set [2] (from C#CCN(CC(N)=O)C(=O)CNC(=O)[C@H](C)NC(=O)[C@H](CC(=O)O)NC(=O)[C@H](Cc1ccc(O)cc1)NC(=O)[C@H](CC(C)C)NC(=O)CNC(=O)[C@@H](N)Cc1ccccc1, 1.0 h) amounted to 82%.

Turning to `CC(C)C[C@@H]1NC(=O)CNC(=O)[C@H](Cc2ccccc2)NC(C)CN(CC(N)=O)C(=O)CNC(=O)[C@H](C)NC(=O)[C@H](CCC(N)=O)NC(=O)[C@H](Cc2ccc(O)cc2)NC1=O` (stereo partly drawn) [H-Phe-Gly-Leu-Tyr-Gln-Ala-Gly-(N-propargyl)Gly-NH2], the ring closure, conversion by HPLC in data set [2] (from C#CCN(CC(N)=O)C(=O)CNC(=O)[C@H](C)NC(=O)[C@H](CCC(N)=O)NC(=O)[C@H](Cc1ccc(O)cc1)NC(=O)[C@H](CC(C)C)NC(=O)CNC(=O)[C@@H](N)Cc1ccccc1, 1.0 h) is 64%.

As to `CC(C)C[C@@H]1NC(=O)CNC(=O)[C@H](Cc2ccccc2)NC(C)CN(CC(N)=O)C(=O)CNC(=O)[C@H](C)NC(=O)[C@H](CCC(=O)O)NC(=O)[C@H](Cc2ccc(O)cc2)NC1=O` (stereo partly drawn) [H-Phe-Gly-Leu-Tyr-Glu-Ala-Gly-(N-propargyl)Gly-NH2], the ring closure, conversion by HPLC in data set [2] (from C#CCN(CC(N)=O)C(=O)CNC(=O)[C@H](C)NC(=O)[C@H](CCC(=O)O)NC(=O)[C@H](Cc1ccc(O)cc1)NC(=O)[C@H](CC(C)C)NC(=O)CNC(=O)[C@@H](N)Cc1ccccc1, 1.0 h) came out at 83%.

Turning to `CC(C)C[C@@H]1NC(=O)CNC(=O)[C@H](Cc2ccccc2)NC(C)CN(CC(N)=O)C(=O)CNC(=O)[C@H](C)NC(=O)[C@H](Cc2c[nH]cn2)NC(=O)[C@H](Cc2ccc(O)cc2)NC1=O` (stereo partly drawn) [H-Phe-Gly-Leu-Tyr-His-Ala-Gly-(N-propargyl)Gly-NH2], the ring closure, conversion by HPLC in data set [2] (from C#CCN(CC(N)=O)C(=O)CNC(=O)[C@H](C)NC(=O)[C@H](Cc1c[nH]cn1)NC(=O)[C@H](Cc1ccc(O)cc1)NC(=O)[C@H](CC(C)C)NC(=O)CNC(=O)[C@@H](N)Cc1ccccc1, 1.0 h) amounted to 57%.

Turning to `CC(C)C[C@@H]1NC(=O)CNC(=O)[C@H](Cc2ccccc2)NC(C)CN(CC(N)=O)C(=O)CNC(=O)[C@H](C)NC(=O)[C@@H]2CCCN2C(=O)[C@H](Cc2ccc(O)cc2)NC1=O` (stereo partly drawn) [H-Phe-Gly-Leu-Tyr-Pro-Ala-Gly-(N-propargyl)Gly-NH2], in data set [2] (from C#CCN(CC(N)=O)C(=O)CNC(=O)[C@H](C)NC(=O)[C@@H]1CCCN1C(=O)[C@H](Cc1ccc(O)cc1)NC(=O)[C@H](CC(C)C)NC(=O)CNC(=O)[C@@H](N)Cc1ccccc1, 1.0 h), the ring closure, conversion by HPLC is 77%.

In the case of `CC(C)C[C@@H]1NC(=O)CNC(=O)[C@H](Cc2ccccc2)NC(C)CN(CC(N)=O)C(=O)CNC(=O)[C@H](C)NC(=O)[C@H](CO)NC(=O)[C@H](Cc2ccc(O)cc2)NC1=O` (stereo partly drawn) [H-Phe-Gly-Leu-Tyr-Ser-Ala-Gly-(N-propargyl)Gly-NH2], the ring closure, conversion by HPLC in data set [2] (from C#CCN(CC(N)=O)C(=O)CNC(=O)[C@H](C)NC(=O)[C@H](CO)NC(=O)[C@H](Cc1ccc(O)cc1)NC(=O)[C@H](CC(C)C)NC(=O)CNC(=O)[C@@H](N)Cc1ccccc1, 1.0 h) came to 74%.

Turning to `CC(C)C[C@@H]1NC(=O)CNC(=O)[C@H](CO)NC(C)CN(CC(N)=O)C(=O)CNC(=O)[C@H](C)NC(=O)[C@H](CCCNC(=N)N)NC(=O)[C@H](Cc2ccc(O)cc2)NC1=O` (stereo partly drawn) [H-Ser-Gly-Leu-Tyr-Arg-Ala-Gly-(N-propargyl)Gly-NH2], in data set [2] (from C#CCN(CC(N)=O)C(=O)CNC(=O)[C@H](C)NC(=O)[C@H](CCCNC(=N)N)NC(=O)[C@H](Cc1ccc(O)cc1)NC(=O)[C@H](CC(C)C)NC(=O)CNC(=O)[C@@H](N)CO, 1.0 h), the ring closure, conversion by HPLC stood at 75%.

For `CC(C)C[C@@H]1NC(=O)CNC(=O)[C@H](Cc2c[nH]c3ccccc23)NC(C)CN(CC(N)=O)C(=O)CNC(=O)[C@H](C)NC(=O)[C@H](CCCNC(=N)N)NC(=O)[C@H](Cc2ccc(O)cc2)NC1=O` (stereo partly drawn) [H-Trp-Gly-Leu-Tyr-Arg-Ala-Gly-(N-propargyl)Gly-NH2], the ring closure, conversion by HPLC in data set [2] (from C#CCN(CC(N)=O)C(=O)CNC(=O)[C@H](C)NC(=O)[C@H](CCCNC(=N)N)NC(=O)[C@H](Cc1ccc(O)cc1)NC(=O)[C@H](CC(C)C)NC(=O)CNC(=O)[C@@H](N)Cc1c[nH]c2ccccc12, 1.0 h) is 83%.
